Laboratory results from US20200316077A1, “PHARMACEUTICAL COMPOSITION FOR THE TREATMENT OF CANCER” (IMPETIS BIOSCIENCES LTD., priority 2017, published 2020).

What was measured:
[1] = test system: 4T1 cells (breast cancer); assay: 4T1 Breast Cancer Model: tumor suppression in mice; assay type: in vivo; settings: BALB/c mice, 3 mg/kg, PO, BID, Day 28, n = 12
Description: (§1) Tumor Suppression Activity of Adenosine A2A (Compound 31) and A2B (Compound 169) Antagonists in Xenograft Models of Cancer
(§2) General Protocol: 6-8 weeks old BALB/c mice were acclimated and on Day 1 of the study, the mice were injected with 50 μL of medium containing 5×10^4 4T1 cells (breast cancer) or 5×10^5 CT26 cells (colon cancer). On day 8 or 9, the mice were segregated into different groups and treated orally with either vehicle (1% Tween-80+0.5% Carboxymethylcellulose in water) or test compound [(Compound 32 5-Amino-3-[2-[4-[2-fluoro-4-(2-methoxyethoxy)phenyl]piperazin-1-yl]ethyl]-8-(2-furyl)-1-methyl-[1,2,4]triazolo[5,1-f]purin-2-one (32) & Phosphoric acid mono-{2-cyano-6-oxo-1-propyl-8-[1-(3-trifluoromethyl-benzyl)-1H-pyrazol-4-yl]-1,6-dihydro-purin-7-ylmethyl} ester (335)] in vehicle. The treatment was BID for 22 days (colon cancer) or 28 days (breast cancer). At the end of the study, the tumor volume was measured as (length X breadth)/2. Data were presented as % reduction compared to the tumor volume in vehicle treated animals.

[2] = test system: CT26 cells (colon cancer); assay: CT26 Colon Cancer Model: tumor suppression in mice; assay type: in vivo; settings: BALB/c mice, 3 mg/kg, PO, BID, Day 22, n = 12
Description: as §1, §2

CCCn1c(C#N)nc2nc(-c3cnn(Cc4cccc(C(F)(F)F)c4)c3)n(COP(=O)(O)O)c2c1=O [Compound 335, Phosphoric acid mono-{2-cyano-6-oxo-1-propyl-8-[1-(3-trifluoromethyl-benzyl)-1H-pyrazol-4-yl]-1,6-dihydro-purin-7-ylmethyl} ester]
% decrease in Tumor growth vs. vehicle On Day 28 [1]: 46.40%
% decrease in Tumor growth vs. vehicle On Day 22 [2]: 23.90%
